Common to all, as to format: binding, rabbit
Test [1] has as its system As382. In words: Competitive indirect ELISA for detection of HHQ (As382, coating antigen I-7). Conditions: for C.R. (Cross Reactivity): As382 (HHQ) assay, relative to HHQ. How it is done:
(§1) The competitive assay was carried out in a 96 well Maxisorp flat-bottom plates, coated using 100 μL of a BSA conjugate solution in coating buffer pH=9.6. Then, plates were covered with adhesive plate sealer and incubated overnight at 4° C. The day after, plates were washed with PBST (4×300 μL) using the platewasher Biotek ELx405 HT. Sequentially, 50 μL of the corresponding sample solution, containing the analyte HHQ, PQS or HQNO (2 μM to 0.13 nM) or MH medium were added, followed by 50 μL addition of a fixed As dilution and left without agitation 30 min at RT. After another washing step, a 1/6000 dilution of goat AntiRabbit IgG-HRP in PBST was added and incubated 30 min at RT. After a final washing, 100 μL of a substrate solution was added and left 30 min at RT in the dark. Once the time was consumed, the enzymatic reaction was stopped by adding 50 μl of H2SO4 4M solution and the absorbances read at 450 nm. Absorbance data were plotted and analyzed using GraphPad software. The standard calibration curve was fitted to a four-parameter equation according to the following formula: […], where A is the maximum absorbance, B is the minimum absorbance, C is the concentration producing 50% of the maximal absorbance, and D is the slope at the inflection point of the sigmoid curve. Unless otherwise indicated, the data presented correspond to the average of at least two well replicates.
(§2) Regarding specificity studies, it was followed the experimental procedure for indirect competitive ELISA described above. It was assessed the avidity of As versus other quinolone effector molecules of the pqs system from P. aeruginosa. Each assay was run using HHQ, PQS and HQNO as analyte. Cross reactivity was calculated through the equation: […].

The subject of test [2] is As385. In words: Competitive indirect ELISA for detection of PQS (As385, coating antigen I-5). Conditions: for C.R. (Cross Reactivity): As385 (PQS) assay, relative to PQS. How it is done:
as §1, §2

For test [3], the system named is As389. In words: Competitive indirect ELISA for detection of HQNO (As389, coating antigen I-5). Conditions: for C.R. (Cross Reactivity): As389 (HQNO) assay, relative to HQNO. How it is done: as §1, §2
[4] abbreviates: cross reactivity study, As382 (HHQ) assay conditions.
Where [5] appears, read: cross reactivity study, As385 (PQS) assay conditions.
The mark [6] stands for this setting: cross reactivity study, As389 (HQNO) assay conditions.

The IC50 is the concentration at which inhibition is half-maximal. Turning to `CCCCCCCc1cc(=O)c2ccccc2[nH]1` [HHQ, 2-heptyl-4-quinolone], the “C.R. (Cross Reactivity)” value in test [1] is 100.00%; in test [2], 13.31%; in test [3], 36.24%. In addition, the IC50 came to 2.85 ± 0.296 nM in test [1] (MH diluted 1/5, As382 dil. 1/64000, I-7 0.156 μg/mL); 4.59 ± 0.287 nM in test [1] (PBST, As382 dil. 1/32000, I-7 0.313 μg/mL); 2.67 nM in test [1] (setting [4]); 27.2 nM in test [2] (setting [5]); 26.4 nM in test [3] (setting [6]).

Consider `CCCCCCCc1cc(=O)c2ccccc2n1O` [HQNO, 2-heptyl-4-quinolone N-oxide], for which the “C.R. (Cross Reactivity)” value is reported as 3.11% in test [1], 1.53% in test [2] and 100.00% in test [3]. The half-inhibitory concentration (IC50) in test [1] (setting [4]) was found to be 86 nM; in test [2] (setting [5]) it was 236 nM; in test [3] (MH diluted 1/5, As389 dil. 1/16000, I-5 0.250 μg/mL), 2.71 ± 0.035 nM; in test [3] (PBS at pH = 6.5, As389 dil. 1, I-5 0.250 μg/mL), 4.2 ± 0.858 nM; in test [3] (setting [6]), 9.55 nM.

In the case of `CCCCCCCc1[nH]c2ccccc2c(=O)c1O` [PQS, 2-heptyl-3-hydroxy-4-quinolone], the “C.R. (Cross Reactivity)” value is 7.16% in test [1], 100.00% in test [2] and 5.41% in test [3]. The IC50 was 37.3 nM in test [1] (setting [4]); 6.05 ± 0.155 nM in test [2] (MH diluted 1/10, As385 dil. 1/64000, I-5 0.039 μg/mL); 3.87 ± 0.529 nM in test [2] (PBS + 0.01% Tween + 0.1 mM EDTA, As385 dil. 1/48000, I-5 0.039 μg/mL); 3.62 nM in test [2] (setting [5]); 177 nM in test [3] (setting [6]).

The values are drawn from patent publication US20230184759A1, “IN VITRO METHOD FOR DETECTION OF INFECTIONS CAUSED BY PSEUDOMONAS AERUGINOSA” (CONSEJO SUPERIOR DE INVESTIGACIONES CIENTIFICAS (CSIC), priority 2020, published 2023).
